# Where two headings read alike, the source gives them in different places.
# Experiment: log P determination (HPLC, calibration with unbranched alkan-2-ones)
# Assay type: physicochemical
# Description: The calibration is carried out using unbranched alkan-2-ones (having 3 to 16 carbon atoms) with known log P values (determination of the log P values by the retention times using linear interpolation between two successive alkanones). The lambda-maX values were determined in the maxima of the chromatographic signals using the UV spectra from 200 nm to 400 nm.
# [1] = * LC-MS determination in the acidic range, pH 2.7, 0.1% aqueous formic acid and acetonitrile, linear gradient 10% to 95% acetonitrile
# [2] = pH 2.7, read-out: log P (pH 2.7)
# [3] = reversed-phase (C18) HPLC column, * LC-MS determination in the acidic range, pH 2.7, 0.1% aqueous formic acid and acetonitrile, linear gradient 10% to 95% acetonitrile, read-out: log p
# [4] = * LC-MS determination in the acidic range at pH 2.7, 0.1% aqueous formic acid and acetonitrile, linear gradient 10% to 95% acetonitrile, reversed-phase C 18
# [5] = reversed-phase (C18) HPLC column, * LC-MS determination in the acidic range, pH 2.7, 0.1% aqueous formic acid / acetonitrile gradient, read-out: log p
# [6] = * LC-MS determination in the acidic range, pH 2.7, 0.1% aqueous formic acid / acetonitrile gradient
SMILES,log p [1],log p [4],also measured
Cc1ccccc1COC(=O)c1csc(C2CCN(C(=O)Cn3nc(C(F)(F)F)cc3C)CC2)n1 [compound 31],3.62*,–,–
Cc1cc(C(F)(F)F)nn1CC(=O)N1CCC(c2nc(C(=O)OC(C)c3ccc(F)cc3)cs2)CC1 (stereo not shown) [compound 41],3.60*,–,–
CCC(OC(=O)c1csc(C2CCN(C(=O)Cn3nc(C(F)(F)F)cc3C)CC2)n1)c1ccc(F)cc1 (stereo not shown) [compound 42],3.89*,–,–
Cc1cc(C(F)(F)F)nn1CC(=O)N1CCC(c2nc(C(=O)OCCc3ccc(F)cc3)cs2)CC1 [compound 43],3.55*,–,–
Cc1cc(C(F)(F)F)nn1CC(=O)N1CCC(c2nc(C(=O)Oc3ccccc3)cs2)CC1 [compound 44],3.20*,–,–
Cc1cc(C(F)(F)F)nn1CC(=O)N1CCC(c2nc(C(=O)Oc3ccc(F)cc3)cs2)CC1 [compound 45],3.26*,–,–
"Cc1cc(C(F)(F)F)nn1CC(=O)N1CCC(c2nc(C(=O)SC3CCCCC3)cs2)CC1 [compound 76, S-Cyclohexyl 2-(1-{[5-methyl-3-(trifluoromethyl)-1H-pyrazol-1-yl]acetyl}piperidin-4-yl)-1,3-thiazole-4-carbothioate]",–,–,chromatographic logP [2]: 4.51; chromatographic logP [3]: 4.51
"Cc1cc(C(F)(F)F)nn1CC(=O)N1CCC(c2nc(C(=O)Sc3cccc4ccccc34)cs2)CC1 [compound 77, S-1-Naphthyl 2-(1-{[5-methyl-3-(trifluoromethyl)-1H-pyrazol-1-yl]acetyl}piperidin-4-yl)-1,3-thiazole-4-carbothioate]",–,–,chromatographic logP [2]: 4.22; chromatographic logP [3]: 4.22
Cc1cc(C(F)(F)F)nn1CC(=O)N1CCC(c2nc(C(=O)OCc3ccccn3)cs2)CC1 [compound 80],2.21*,–,–
Cc1cc(C(F)(F)F)nn1CC(=O)N1CCC(c2nc(C(=O)OCc3cccs3)cs2)CC1 [compound 81],3.22*,–,–
C[Si](C)(C)COC(=O)c1csc(C2CCN(C(=O)Cn3ccc(C(F)(F)F)n3)CC2)n1 [compound 84],3.53*,–,–
O=C(OC1CCCCC1)c1csc(C2CCN(C(=O)Cn3ccc(C(F)(F)F)n3)CC2)n1 [compound 85],3.42*,–,–
O=C(OC1CCCc2ccccc21)c1csc(C2CCN(C(=O)Cn3ccc(C(F)(F)F)n3)CC2)n1 (stereo not shown) [compound 89],3.68*,–,–
O=C(OC1CCc2ccccc21)c1csc(C2CCN(C(=O)Cn3ccc(C(F)(F)F)n3)CC2)n1 (stereo not shown) [compound 91],3.37*,–,–
O=C(Oc1cccc2ccccc12)c1csc(C2CCN(C(=O)Cn3ccc(C(F)(F)F)n3)CC2)n1 [compound 92],3.42*,–,–
O=C(OCc1ccccc1)c1csc(C2CCN(C(=O)Cn3ccc(C(F)(F)F)n3)CC2)n1 [compound 94],2.99*,–,–
O=C(OCc1ccc(F)cc1)c1csc(C2CCN(C(=O)Cn3ccc(C(F)(F)F)n3)CC2)n1 [compound 95],3.04*,–,–
CC(OC(=O)c1csc(C2CCN(C(=O)Cn3ccc(C(F)(F)F)n3)CC2)n1)c1ccc(F)cc1 (stereo not shown) [compound 124],3.18*,–,–
O=C(OCCc1ccc(F)cc1)c1csc(C2CCN(C(=O)Cn3ccc(C(F)(F)F)n3)CC2)n1 [compound 126],–,3.27*,–
O=C(Oc1ccccc1)c1csc(C2CCN(C(=O)Cn3ccc(C(F)(F)F)n3)CC2)n1 [compound 127],–,2.85*,–
O=C(Oc1ccc(F)cc1)c1csc(C2CCN(C(=O)Cn3ccc(C(F)(F)F)n3)CC2)n1 [compound 128],–,2.89*,–
O=C(OCc1ccncc1)c1csc(C2CCN(C(=O)Cn3ccc(C(F)(F)F)n3)CC2)n1 [compound 142],–,1.32*,–

SMILES,log p [1],log p [4],also measured
O=C(OCc1cccs1)c1csc(C2CCN(C(=O)Cn3ccc(C(F)(F)F)n3)CC2)n1 [compound 143],–,2.85*,–
Cc1c(Cl)c(C(F)(F)F)nn1CC(=O)N1CCC(c2nc(C(=O)OC[Si](C)(C)C)cs2)CC1 [compound 144],–,4.28*,–
Cc1c(Cl)c(C(F)(F)F)nn1CC(=O)N1CCC(c2nc(C(=O)OC3CCCCC3)cs2)CC1 [compound 145],–,4.17*,–
Cc1c(Cl)c(C(F)(F)F)nn1CC(=O)N1CCC(c2nc(C(=O)OC3CCCC3)cs2)CC1 [compound 146],–,3.84*,–
Cc1c(Cl)c(C(F)(F)F)nn1CC(=O)N1CCC(c2nc(C(=O)OC3CCCc4ccccc43)cs2)CC1 (stereo not shown) [compound 149],–,4.40*,–
Cc1c(Cl)c(C(F)(F)F)nn1CC(=O)N1CCC(c2nc(C(=O)OC3CCCC4CCCCC43)cs2)CC1 (stereo not shown) [compound 150],–,5.44*,–
Cc1c(Cl)c(C(F)(F)F)nn1CC(=O)N1CCC(c2nc(C(=O)OC3CCc4ccccc43)cs2)CC1 (stereo not shown) [compound 151],–,4.17*,–
Cc1c(Cl)c(C(F)(F)F)nn1CC(=O)N1CCC(c2nc(C(=O)Oc3cccc4ccccc34)cs2)CC1 [compound 152],–,4.17*,–
Cc1c(Cl)c(C(F)(F)F)nn1CC(=O)N1CCC(c2nc(C(=O)Oc3ccc4ccccc4c3)cs2)CC1 [compound 153],–,4.17*,–
Cc1c(Cl)c(C(F)(F)F)nn1CC(=O)N1CCC(c2nc(C(=O)OCc3ccccc3)cs2)CC1 [compound 154],–,3.73*,–
Cc1c(Cl)c(C(F)(F)F)nn1CC(=O)N1CCC(c2nc(C(=O)OCc3ccc(F)cc3)cs2)CC1 [compound 155],–,3.73*,–
Cc1c(Cl)c(C(F)(F)F)nn1CC(=O)N1CCC(c2nc(C(=O)OC(C)c3ccc(F)cc3)cs2)CC1 (stereo not shown) [compound 184],–,3.89*,–
Cc1c(Cl)c(C(F)(F)F)nn1CC(=O)N1CCC(c2nc(C(=O)OCCc3ccc(F)cc3)cs2)CC1 [compound 186],–,3.94*,–
Cc1c(Cl)c(C(F)(F)F)nn1CC(=O)N1CCC(c2nc(C(=O)Oc3ccccc3)cs2)CC1 [compound 187],–,3.58*,–
Cc1c(Cl)c(C(F)(F)F)nn1CC(=O)N1CCC(c2nc(C(=O)Oc3ccc(F)cc3)cs2)CC1 [compound 188],–,3.63*,–
Cc1c(Cl)c(C(F)(F)F)nn1CC(=O)N1CCC(c2nc(C(=O)OCc3ccncc3)cs2)CC1 [compound 217],–,1.82*,–
Cc1c(Cl)c(C(F)(F)F)nn1CC(=O)N1CCC(c2nc(C(=O)OCc3cccs3)cs2)CC1 [compound 218],–,3.58*,–
"Cc1cc(C(F)(F)F)nn1CC(=O)N1CCC(c2nc(C(=O)OC3CCCCC3)cs2)CC1 [compound 220, Cyclohexyl 2-(1-{[5-methyl-3-(trifluoromethyl)-1H-pyrazol-1-yl]acetyl}piperidin-4-yl)-1,3-thiazole-4-carboxylate]",–,–,"chromatographic logP [2]: 3.74; chromatographic logP (reversed-phase C18 HPLC column, * LC-MS determination in the acidic range at pH 2.7, 0.1% aqueous formic acid and acetonitrile, linear gradient 10% to 95% acetonitrile, reversed-phase C 18, read-out: log p): 3.74"
"Cc1cc(C(F)(F)F)nn1CC(=O)N1CCC(c2nc(C(=O)OC3CCCc4ccccc43)cs2)CC1 (stereo not shown) [compound 224, 1,2,3,4-Tetrahydronaphthalen-1-yl 2-(1-{[5-methyl-3-(trifluoromethyl)-1H-pyrazol-1-yl]acetyl}piperidin-4-yl)-1,3-thiazole-4-carboxylate]",–,–,chromatographic logP [2]: 4.01; chromatographic logP [5]: 4.01
"Cc1cc(C(F)(F)F)nn1CC(=O)N1CCC(c2nc(C(=O)Oc3cccc4ccccc34)cs2)CC1 [compound 227, 1-Naphthyl 2-(1-{[5-methyl-3-(trifluoromethyl)-1H-pyrazol-1-yl]acetyl}piperidin-4-yl)-1,3-thiazole-4-carboxylate]",–,–,chromatographic logP [2]: 3.75; chromatographic logP [5]: 3.75
Cc1cc(C(F)(F)F)nn1CC(=O)N1CCCC(c2nc(C(=O)OCc3ccncc3)cs2)C1 (stereo not shown) [compound 292],–,–,log p [6]: 1.51*
Cc1cc(C(F)(F)F)nn1CC(=O)N1CCCC(c2nc(C(=O)OCc3cccs3)cs2)C1 (stereo not shown) [compound 293],–,–,log p [6]: 3.23*
